This is an account of results in PMC12058896, “Potent antimicrobial activity of hydrogel loaded with the antimicrobial peptide, D-Bac8c^2,5 Leu, against monospecies and polymicrobial biofilms of Staphylococcus aureus and Pseudomonas aeruginosa” (Frontiers in Microbiology, 2025).

Experiment [1] deals with monospecies and polymicrobial biofilms of S. aureus and P. aeruginosa. The experiment in a line: Duckworth biofilm flow device (dynamic biofilm). It is filed as cell-based. The note with it: biofilms grown 1 and 5 days under shear flow in SWF; 256 μg/mL for 6 h. As for the experimental part:
The Duckworth biofilm flow device was set-up and run following the method described by [Duckworth et al. (2018)]. Twelve disks of agar at 1.5% (w/v) concentration were cut using a 10 mm French press punch and placed into designated wells in the flow device. Cellulose filter (13 mm, 0.22 μm, Merck Millipore, Ireland) was placed on top of each agar disk, and was inoculated with 10 μL of the bacterial inoculum. The device was placed in an incubator at 37°C while a continuous flow of SWF was pumped into the device at a flow rate of 0.322 mL/min for 24 h or 5 days using a peristaltic pump (Supplementary Figure S2). Subsequently, topical treatment with D-Bac8c^2,5 Leu was introduced and allowed to run for a further 6 h. The biofilm formed on the cellulose filters were collected and suspended in 1 mL PBS. Colony counting was performed as described above. The Duckworth biofilm flow device was prepared and run as described above with slight modification. A solution of agarose dissolved in SWF (0.3 g in 20 mL), mixed with bacterial cultures at 10^8 CFU/mL and then supplemented with 3% FBS and 0.15% collagen (Merck, Ireland) was allowed to solidify at room temperature and then 12 disks of that was cut using a 10 mm French press punch. The disks were then placed into designated wells and experiments run as previously described. […]

The subject of experiment [2] is PAO1. The experiment in a line: microbe, parasite or virus in culture. The experiment is classed as cell-based, Pseudomonas aeruginosa. The settings on record: PAO1, 18 h. The method, then: Strains used in the study were isolates of methicillin-resistant Staphylococcus aureus (MRSA); USA300 LAC, BH1CC ([O’Neill et al., 2007]), methicillin-sensitive S. aureus (MSSA); SH1000 ([Horsburgh et al., 2002]) and BH48 ([O’Neill et al., 2007]); and Pseudomonas aeruginosa PAO1 (ATCC […]). Clinical isolates were obtained from a previous collection of isolates of infected wounds. Bacteria were grown aerobically at 37°C with shaking at 200 rpm in Brain Heart Infusion (BHI, Oxoid, Ireland). Selective media, Mannitol Salt Agar (SLS, Ireland) and MacConkey agar (SLS, Ireland), for re-isolation of bacterial strains from mixed species biofilms were used. Bolton Broth (Fannin, Ireland) supplemented with 50% bovine heparin plasma (TebuBio, UK), and 5% laked horse blood (Sigma-Aldrich, Ireland) was used to mimic in vivo conditions for static antibiofilm testing. For dynamic biofilm growth Simulated Wound Fluid (SWF) prepared as described previously with slight modification, 3% v/v fetal bovine serum in maximum recovery diluent (Merck, Ireland) was used ([Barbour et al., 2016]).
Minimum inhibitory concentration (MIC) was determined aerobically using the broth microdilution assay as recommended by the Clinical and Laboratory Standards Institute (CLSI) ([CLSI, 2018]). Briefly, 2-fold serial dilutions of the antimicrobial peptides of interest and conventional antibiotics were prepared in Mueller-Hinton broth (MHB) (Merck, Ireland) in a 96-well round bottom polypropylene plate (ThermoFisher, Ireland). Diluted bacterial suspensions in sterile PBS (Sigma, Ireland) were added to each well resulting in a final cell density of approximately 10^5 colony forming units (CFU)/mL. Microplates were incubated statically for 18 h at 37°C. In each assay, inoculated medium without antimicrobials and uninoculated medium served as growth and sterility controls, respectively. Conventional antibiotics, gentamicin (Merck, Ireland) and mupirocin (SLS, UK), were tested as comparator antimicrobials. The MIC value was defined as the lowest antimicrobial concentration showing no visible growth relative to positive (no antimicrobial agent) and negative controls (BHI alone). Experiments were conducted in triplicate, and independent replicates were performed three times to yield n = 3.

Experiment [3] relates to monospecies and polymicrobial biofilms of Staphylococcus aureus and Pseudomonas aeruginosa. The experiment in a line: Static biofilm assays. The experiment is classed as cell-based. As for the experimental part:
Biofilms were formed under static conditions using flat 96-well polystyrene plates as described previously with few modifications ([[…] al., 2018]). Briefly, overnight cultures in BHI were washed and diluted 1:200 in fresh Bolton Broth media supplemented with 50% bovine heparin plasma, and 5% laked horse blood. From this suspension, 100 μL was used to inoculate the microtiter plate wells prior to static incubation at 37°C for 24 h, 3 days and 5 days. The media in each well was changed daily during prolonged incubation periods (3 and 5 days). […] After incubation with D-Bac8c^2,5 Leu, biofilms were washed twice with PBS and biofilm assessment was performed. For the polymicrobial biofilms, a bacterial solution ratio 1:1 of S. aureus and P. aeruginosa at 1 × 10^5 CFU/mL each was used to inoculate the wells. In each assay, inoculated medium without antimicrobials and uninoculated medium served as growth and sterility controls, respectively. […] Viability of biofilm cells after treatment was measured using resazurin-conversion assay as previously described ([Hogan et al., 2016]) (Sigma-Aldrich, Ireland). […] Fluorescence intensity was detected at excitation of 544 nm and emission of 590 nm using a fluorimeter, Perkin Elmer 2030 Multilabeled Reader, Victor 3X. […] After overnight incubation at 37°C, CFU were counted and results were expressed as log10CFU/mL.

In brackets after ≈: the same amount, converted by molar mass. Non-standard residues stand in square brackets, D forms with d. Residues, ends and D or L forms follow the SMILES beside them. Bounds are passed on as bounds.

`CC(C)C[C@@H](NC(=O)[C@H](N)CCCNC(=N)N)C(=O)N[C@H](Cc1c[nH]c2ccccc12)C(=O)N[C@@H](C(=O)N[C@H](CC(C)C)C(=O)N[C@H](Cc1c[nH]c2ccccc12)C(=O)N[C@H](CCCNC(=N)N)C(=O)N[C@H](CCCNC(=N)N)C(N)=O)C(C)C` [D-Bac8c^2,5 Leu] (H-[dR][dL][dW][dV][dL][dW][dR][dR]-NH2; N-terminus assumed) had a reduction in viability in experiment [1] not above 3 log. The MIC in experiment [2] worked out at 16 µg/mL (≈ 13.5 µM). In addition, the “reduction in bacterial load compared to untreated controls” value in experiment [3] (static biofilm assays, summed up in abstract) is reported as 2–3 log. Also, the “minimum concentration needed to inactivate biofilms” value in experiment [3] (static biofilms, 6 h treatment (Figures 1, 2 and Table 3)) amounted to 64 µg/mL.
